From patent publication US20050049242A1 (priority 2000, published 2005)
pEC50, pIC50: −log10 of the molar value. Like-named read-outs stand apart in the source and are kept apart here.

Columns and labels:
MT-2 cells = conditions: 48 hours
Excerpt: The chemical structures of the compounds are illustrated in FIGS. 1-4. In FIG. 1a, the D- and meso-isomers of L-chicoric acid are identical in this illustrative format. […] The first compound in Table 1, L-chicoric acid, a previously described DCTA, is included for reference. LD5, the 5% lethal dose, is a measure of the toxicity of compound to living, cultured cells. It is the concentration at which cell growth is inhibited by 5%. […] Most simply understood, disintegration is a term used to refer to the reverse of integration.
Cell toxicity and anti-HIV assays were performed as reported above. […] Cells were incubated with drug for 48 hours at 37° C., then harvested for cell viability in a neutral red dye assay as described.

HIVLAI = test: Anti-HIV assay, protection from HIV-induced cell death; assay type: cell-based; conditions: read-out: ED50 (concentration that inhibits HIV-induced cell death by 50%)
Method: Anti-HIV assays were performed as described above. […] The compounds were then two-fold serially diluted in triplicate. To each 50 μl of diluted compound, 50 μl of HIVLAI was added and the virus-drug mixture was incubated for 1 hr at 37° C. […] Final multiplicity of infection (MOI) was 1-5. Cells were harvested to quantitate cytopathic effect using a neutral red dye assay as described.

HIV-1NL4-3 = test: Anti-HIV cytopathicity assay against parental molecular clone; assay type: cell-based; conditions: mean of triplicate infections; read-out: ED50 HIVNL4-3
Method: (§1) Cloning and sequencing of virus from the HIVNL4-3 passaged in the presence of 8 μM L-chicoric acid was undertaken to determine the molecular basis for resistance to L-chicoric acid and to isolate a resistant HIV clone.
Assays, as described above, to determine the ED50 for a given compound against the molecular clone HIVNL4-3clone1-D4 and the parental clone HIVNL4-3 give an indication of the selectivity of the compound for inhibition of HIV replication through IN. Resistance to a compound, as measured by an increased ED50, by clone HIVNL4-3clone1-D4, implies selectivity of the compound for IN. Thus clone HIVNL4-3clone1-D4 can be used to screen candidate IN inhibitors for selectivity.

HIV-1NL4-3clone1-D4 = assay type: cell-based; conditions: for Fold Change (ED50 resistant clone vs HIVNL4-3): HIVNL4-3clone1-D4 vs HIVNL4-3; for efficacy against the L-chicoric acid resistant clone: compared with parental HIVNL4-3; for pEC50: mean of triplicate infections, read-out: ED50 HIVNL4-3clone1-D4
Method: as §1
This cloning was accomplished through site-directed mutagenesis introducing several silent mutations immediately upstream and downstream of the integrase gene. These mutations generated two unique restriction sites: an upstream SacII and a downstream XbaI (FIG. 15). Introduction of these mutations allowed the entire integrase gene with only minimal upstream and downstream nucleotides to be digested and “swapped” between drug-resistant and drug-sensitive clones.

HIV-1 IN = HIV-1 IN (Human immunodeficiency virus type 1 group M subtype B, UniProt P12497); test: biochemical
HIVNL4-3 clone 7-1 = assay type: cell-based, HIV-1; conditions: for concentration of the drug in the combination with L-CCA giving Fa: NL4-3clone7-1, combined with L-CCA
HIVNL4-3 M184V = assay type: cell-based, HIV-1; conditions: for concentration of the drug in the combination with L-CCA giving Fa: NL4-3cloneM184V, combined with L-CCA
Method: (§2) For each of these HIV clones, the ED50 was determined for the anti-HIV compounds ZDV, DDC, DDI, the protease inhibitor (PI) Nelfinavir (provided by Agouron Pharmaceuticals, San Diego), and L-CCA.
(§3) Molecular clones of HIV included wild-type HIVNL4-3, HIVNL4-3 M184V, and HIVNL4-3 JF26/A7, All three clones were a generous gift from P. Krogstad (UCLA, Los Angeles, Calif.). Viruses were initially, transfected in adherent HeLa cells using Lipofectin®. After 48 hours, H9 cells were added. Following 24 hours of co-culture, non-adherent cells were removed and cultured. Cells were monitored by indirect immunofluorescence and RT release as described below until the culture was 100% infected by HIV-1. Supernatant fluids were collected and clarified of cells by low-speed centrifugation followed by filtration through 0.45 μm filters.
(§4) Anti-HIV activity of compounds was determined both alone and in combination using a cytopathicity based assay as described above. […] The fifty-percent effective dose (ED50) was calculated for triplicate infections. Mean ED50 (shown in FIG. 5) were calculated for each drug against each HIV variant from a minimum of three experiments performed in triplicate.
(§5) Experiments were designed at a fixed ratio of drugs; the ratio for each drug combination was determined based on the ED50 of each drug alone against each HIV variant. Combination indices were calculated on representative experiments performed in triplicate according to the following formula of Chou and Talalay: fa/fu=(D/Dm)^m
(§6) Where fa is the fraction affected by the dose, fu is the unaffected fraction, D is the dose of the drug, Dm is the median-effect dose determined to be the x-intercept of the median-effect plot, and m is the sigmoidicity of the dose-effect curve, determined by the slope of the median-effect plot. The median effect plot is based on the following equation: log(fa/fu)=^m log (D)−m log (Dm)

HIVNL4-3 JF26/A7 = conditions: NL4-3cloneJF26/A7, combined with L-CCA
Method: as §2, §3, §4, §5, §6

[1] = Human immunodeficiency virus 1, MT2, 72 h

Row | Structure (SMILES) | LD5 (5% lethal dose, concentration at which cell growth is inhibited by 5%) (MT-2 cells) | pEC50 (HIVLAI; HIVLAI, MT-2 cells, 72 hr) | pEC50 (HIV-1NL4-3) | Fold Change (ED50 resistant clone vs HIVNL4-3) (HIV-1NL4-3clone1-D4) | efficacy against the L-chicoric acid resistant clone (HIV-1NL4-3clone1-D4) | pEC50 (HIV-1NL4-3clone1-D4) | pEC50 (HIVLAI; [1]) | pIC50 (HIV-1 IN) | concentration of the drug in the combination with L-CCA giving Fa (HIVNL4-3 clone 7-1; Fa 0.2) | concentration of the drug in the combination with L-CCA giving Fa (HIVNL4-3 clone 7-1; Fa 0.4) | concentration of the drug in the combination with L-CCA giving Fa (HIVNL4-3 clone 7-1; Fa 0.6) | concentration of the drug in the combination with L-CCA giving Fa (HIVNL4-3 clone 7-1; Fa 0.8) | concentration of the drug in the combination with L-CCA giving Fa (HIVNL4-3 clone 7-1; Fa 0.9) | concentration of the drug in the combination with L-CCA giving Fa (HIVNL4-3 M184V; Fa 0.2) | concentration of the drug in the combination with L-CCA giving Fa (HIVNL4-3 M184V; Fa 0.4) | concentration of the drug in the combination with L-CCA giving Fa (HIVNL4-3 M184V; Fa 0.6) | concentration of the drug in the combination with L-CCA giving Fa (HIVNL4-3 M184V; Fa 0.8) | concentration of the drug in the combination with L-CCA giving Fa (HIVNL4-3 M184V; Fa 0.9) | concentration of the drug in the combination with L-CCA giving Fa (HIVNL4-3 JF26/A7; Fa 0.2) | concentration of the drug in the combination with L-CCA giving Fa (HIVNL4-3 JF26/A7; Fa 0.4) | other results
1 | O=C(O[C@@H](C(=O)O)[C@@H](OC(=O)c1cc(O)c(O)c(O)c1)C(=O)O)c1cc(O)c(O)c(O)c1 [Compound 25] | 2.7 µM | 6.18 | 6.54 | 107 | reduced efficacy | 4.51 |  |  |  |  |  |  |  |  |  |  |  |  |  |  | 
2 | O=C(C=Cc1ccc(O)c(O)c1)NCC(OC(=O)C=Cc1ccc(O)c(O)c1)C(=O)O [Compound 40, Bis-dicaffeoyl-L-isoserine] | 175 µM |  |  |  |  |  | 5.52 | 6.71 |  |  |  |  |  |  |  |  |  |  |  |  | 
3 | O=C(Cc1ccc(O)c(O)c1)O[C@@H](C(=O)O)[C@@H](OC(=O)Cc1ccc(O)c(O)c1)C(=O)O [Compound 28] | 70 µM | 4.46 | 4.81 | 4 | reduced efficacy | 4.20 |  |  |  |  |  |  |  |  |  |  |  |  |  |  | 
4 | O=C(/C=C/c1ccc(O)c(O)c1)OC[C@H](OC(=O)/C=C/c1ccc(O)c(O)c1)C(=O)O [Compound 19, Dicaffeoyl-L-glyceric acid] | 145 µM |  |  |  |  |  | 5.64 | 6.28 |  |  |  |  |  |  |  |  |  |  |  |  | 
5 | Nc1ccn([C@H]2CC[C@@H](CO)O2)c(=O)n1 [DDC, 2′,3′-dideoxycytidine] |  |  |  |  |  |  |  |  | 12.4 nM | 21.1 nM | 32.8 nM | 56.0 nM | 87.1 nM | 21.6 nM | 43.2 nM | 76.8 nM | 153.7 nM | 273 nM | 13.0 nM | 23.8 nM | susceptibility of the clone to the drug alone (HIVNL4-3 clone 7-1; HIVNL4-3 clone 7-1): increased susceptibility; susceptibility of the clone to the drug alone (HIVNL4-3 M184V; clone with methionine to valine mutation in RT): partial resistance; concentration of the drug in the combination with L-CCA giving Fa (HIVNL4-3 JF26/A7; Fa 0.6): 39.2 nM; concentration of the drug in the combination with L-CCA giving Fa (HIVNL4-3 JF26/A7; Fa 0.8): 71.8 nM; concentration of the drug in the combination with L-CCA giving Fa (HIVNL4-3 JF26/A7; Fa 0.9): 118 nM
6 | Cc1c(O)cccc1C(=O)N[C@@H](CSc1ccccc1)[C@H](O)CN1C[C@H]2CCCC[C@H]2C[C@H]1C(=O)NC(C)(C)C [Nelfinavir] |  |  |  |  |  |  |  |  | 2.9 nM | 4.9 nM | 7.6 nM | 13.1 nM | 20.3 nM | 2.5 nM | 4.7 nM | 7.9 nM | 14.8 nM | 24.8 nM | 4.6 nM | 7.0 nM | concentration of the drug in the combination with L-CCA giving Fa (HIVNL4-3 JF26/A7; Fa 0.6): 10.0 nM; concentration of the drug in the combination with L-CCA giving Fa (HIVNL4-3 JF26/A7; Fa 0.8): 15.1 nM; concentration of the drug in the combination with L-CCA giving Fa (HIVNL4-3 JF26/A7; Fa 0.9): 21.3 nM
